Eleven compounds from ChEMBL document CHEMBL1201862, “PubChem BioAssay data set” (2004) can be followed below.

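Cells were grown in 96-well plates and exposed to each compound for 48 hours at five concentrations; endpoints were interpolated linearly between bracketing concentrations, or set to the highest concentration if not reached. At the GI50, growth is halved.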 Calls of active or inactive are those of the source. Cut-off read from the data, not from the text of the source: active = GI50 up to about 1.1 µM and inactive = higher.

Some test systems named below: SF-539; HT-29; K562; RXF 393; DU-145; OVCAR-4; KM12; 786-0; Malme-3M; BT-549; SNB-19; SF-268; T47D; NCI-H522; OVCAR-3; U-251; LOX IMVI; SF-295; HOP-62.
What all share (assay): NCI-60 cell line screen, 48 h

Take `CSc1c(C#N)c(=O)n(N)c2c1c(C)nn2-c1ccccc1`: the GI50 with SF-539 was 19 µM (inactive); with HT-29, 24.7 µM (inactive); in the experiment on K562 it was 31 µM (inactive); in the experiment on RXF 393, 18.7 µM (inactive); with DU-145, 37.2 µM (inactive); with OVCAR-4, 23.6 µM (inactive). The GI50 was 34.2 µM (inactive) in the experiment on KM12; 40.5 µM (inactive) in the experiment with 786-0; 22.4 µM (inactive) in the experiment with Malme-3M; 30.1 µM (inactive) in the experiment on BT-549; 28.4 µM (inactive) in the experiment with SNB-19; 42 µM (inactive) with SF-268. Further, the GI50 in the experiment on T47D was 25.8 µM (inactive); in the experiment with NCI-H522, 22.9 µM (inactive); with OVCAR-3 it was 25.1 µM (inactive); with U-251 it was 28.1 µM (inactive); with LOX IMVI it was 20.6 µM (inactive).
Consider `CCCCCCCCCCCCCCCCC(=O)NCC(=O)NCC(=O)NC(Cc1ccccc1)C(=O)Oc1ccc([N+](=O)[O-])cc1` (stereo unspecified), for which the GI50 with SF-539 was 27.6 µM (inactive); in the experiment with HT-29, 29.3 µM (inactive); in the experiment on K562 it was 23.3 µM (inactive); in the experiment with RXF 393, 23.4 µM (inactive); in the experiment on DU-145 it was > 100 µM (inactive); with OVCAR-4, > 100 µM (inactive). Moreover, the GI50 with KM12 is 22.7 µM (inactive); with 786-0, 27.5 µM (inactive); in the experiment with BT-549, 16.7 µM (inactive); with SF-295, 23 µM (inactive); with HOP-62, 22 µM (inactive); in the experiment with SNB-19, > 10 µM (inactive). The GI50 with SF-268 was 23.3 µM (inactive); in the experiment on T47D, 30.7 µM (inactive); in the experiment with NCI-H522, 26.7 µM (inactive); with OVCAR-3, > 100 µM (inactive); in the experiment with U-251, 18.4 µM (inactive); in the experiment on LOX IMVI, 20.4 µM (inactive).
Regarding `Cc1ccccc1N/N=C1\C(=O)Nc2ccccc21`, the GI50 with HT-29, with K562, in the experiment with RXF 393, with DU-145, with OVCAR-4 and with KM12 was > 100 µM (inactive) each time. In addition, the GI50 in the experiment on 786-0, with BT-549, in the experiment with SF-295, with HOP-62, in the experiment with SNB-19 and in the experiment with SF-268 was > 100 µM (inactive) throughout. The GI50 in the experiment with T47D was > 100 µM (inactive); in the experiment with NCI-H522, 96.8 µM (inactive); in the experiment on OVCAR-3 it was > 100 µM (inactive); in the experiment with U-251, > 100 µM (inactive); in the experiment with LOX IMVI, > 100 µM (inactive).
`COc1c(O)cc(C(=O)O[C@@H]2Cc3c(O)cc(O)cc3O[C@@H]2c2cc(O)c(O)c(O)c2)cc1O`: the GI50 in the experiment on HT-29 is 18.2 µM (inactive); with K562 it was 22.8 µM (inactive); in the experiment on RXF 393 it was 18.4 µM (inactive); with DU-145 it was 20.3 µM (inactive); with OVCAR-4, 20.2 µM (inactive); in the experiment on KM12, 20.1 µM (inactive). The GI50 with 786-0 is 18.5 µM (inactive); in the experiment on Malme-3M, > 100 µM (inactive); with BT-549 it was 25.3 µM (inactive); in the experiment with SF-295, 20.3 µM (inactive); in the experiment on HOP-62, 30.7 µM (inactive); in the experiment on SNB-19, 21.4 µM (inactive). In addition, the GI50 was 20.5 µM (inactive) with SF-268; 26.2 µM (inactive) in the experiment on T47D; 24.4 µM (inactive) in the experiment with NCI-H522; 49.4 µM (inactive) with OVCAR-3; 19.7 µM (inactive) in the experiment on LOX IMVI.
Take `CCCCCCC(=O)c1ccc2ccccc2c1O`: the GI50 was 52.7 µM (inactive) with SF-539; 25.1 µM (inactive) with HT-29; > 100 µM (inactive) in the experiment on K562; 25.1 µM (inactive) in the experiment on RXF 393; 26.6 µM (inactive) in the experiment with DU-145; > 100 µM (inactive) in the experiment with OVCAR-4. In addition, the GI50 in the experiment with KM12 is 31 µM (inactive); in the experiment on 786-0, 38.8 µM (inactive); with BT-549, 76 µM (inactive); in the experiment with SF-295 it was 34.5 µM (inactive); in the experiment on HOP-62, > 100 µM (inactive); in the experiment with SNB-19 it was > 100 µM (inactive). Further, the GI50 in the experiment on SF-268 was 34.2 µM (inactive); in the experiment on T47D, 34.8 µM (inactive); with U-251, > 100 µM (inactive); in the experiment with LOX IMVI, 42.1 µM (inactive).
Consider `CC1(C)CNC(c2ccc3c(c2)Cc2cc(C4=NC(C)(C)CN4)ccc2-3)=N1`, for which the GI50 was 32.1 µM (inactive) in the experiment with HT-29; 24.4 µM (inactive) with K562; > 100 µM (inactive) in the experiment with RXF 393; > 100 µM (inactive) in the experiment with DU-145; 32.9 µM (inactive) in the experiment with OVCAR-4; 28.1 µM (inactive) in the experiment on KM12. For the same compound, the GI50 was 49.8 µM (inactive) in the experiment on 786-0; 24.7 µM (inactive) in the experiment on Malme-3M; > 100 µM (inactive) with BT-549; > 100 µM (inactive) with SF-295; 33.5 µM (inactive) in the experiment on HOP-62; 35.1 µM (inactive) in the experiment on SNB-19. In addition, the GI50 in the experiment on SF-268 is 34.6 µM (inactive); in the experiment on T47D, 61.2 µM (inactive); in the experiment on NCI-H522, 29.9 µM (inactive); with OVCAR-3 it was 35.7 µM (inactive); in the experiment on U-251, 22 µM (inactive); with LOX IMVI, 37 µM (inactive).
Take `Cc1ccc2c(O)c3c(cc2c1)C(=O)c1c2c(cc(O)c1C3=O)C1(C)OC(O2)C(O)C(N(C)C)C1O` (stereo unspecified): the GI50 in the experiment on SF-539 was 1.11 µM (active); in the experiment on HT-29, 0.495 µM (active); in the experiment with K562 it was 0.167 µM (active); with RXF 393, 1.21 µM (inactive); in the experiment with DU-145 it was 0.767 µM (active); in the experiment with OVCAR-4, 1.56 µM (inactive). Also, the GI50 was 0.59 µM (active) in the experiment with KM12; 0.617 µM (active) with 786-0; 1.49 µM (inactive) with BT-549; 1.09 µM (active) with SF-295; 1.01 µM (active) with HOP-62; 1.17 µM (inactive) with SNB-19. Besides, the GI50 with SF-268 is 3.65 µM (inactive); in the experiment with T47D, 0.656 µM (active); in the experiment on NCI-H522 it was 1.22 µM (inactive); in the experiment with OVCAR-3, 0.794 µM (active); in the experiment with U-251, 1.16 µM (inactive); in the experiment on LOX IMVI it was 1.11 µM (active).
As to `CN(N=O)C(=O)Nc1ccc(C(=O)O)cc1`, the GI50 with SF-539, in the experiment on HT-29, in the experiment on K562, in the experiment with RXF 393, in the experiment on DU-145 and in the experiment with OVCAR-4 was > 100 µM (inactive) throughout. Moreover, the GI50 in the experiment with KM12, in the experiment with 786-0, in the experiment with BT-549, in the experiment with SF-295, in the experiment on HOP-62 and in the experiment with SNB-19 was > 100 µM (inactive) throughout. Further, the GI50 in the experiment with SF-268, with T47D, in the experiment with NCI-H522, with OVCAR-3, in the experiment with U-251 and with LOX IMVI was > 100 µM (inactive) throughout.
In the case of `CCOC(=O)c1c(NC(=O)OC)c(C#N)c2n1CCCCC2`, the GI50 in the experiment on SF-539 was > 100 µM (inactive); in the experiment on HT-29, > 100 µM (inactive); in the experiment on K562, > 100 µM (inactive); in the experiment with RXF 393 it was > 100 µM (inactive); in the experiment on DU-145, 22.8 µM (inactive); in the experiment with OVCAR-4, > 100 µM (inactive). Moreover, the GI50 in the experiment with KM12, in the experiment with 786-0, in the experiment with BT-549, in the experiment with SF-295, in the experiment on HOP-62 and with SNB-19 was > 100 µM (inactive) in each case. Also, the GI50 in the experiment on SF-268, in the experiment with T47D, in the experiment on U-251 and with LOX IMVI was > 100 µM (inactive) each time.
With `COc1ccc(/N=N/C(=N/NC(=O)c2ccc(C)cc2)c2ccc(N(CCC#N)CCC#N)cc2OC)cc1`, the GI50 in the experiment on HT-29, in the experiment on K562, in the experiment on RXF 393, in the experiment on DU-145, in the experiment with OVCAR-4 and with KM12 was > 100 µM (inactive) each time. Further, the GI50 in the experiment on 786-0, with Malme-3M, in the experiment on BT-549, with SF-295, in the experiment on HOP-62 and in the experiment on SNB-19 was > 100 µM (inactive) each time. The GI50 in the experiment on SF-268, with T47D, in the experiment on NCI-H522, in the experiment with OVCAR-3, in the experiment on U-251 and in the experiment on LOX IMVI was > 100 µM (inactive) in each case.
`O=[N+]([O-])c1cc(/N=N/c2c(O)ccc3cc(S(=O)(=O)O)ccc23)c(O)c([N+](=O)[O-])c1`: the GI50 with HT-29 was 50.2 µM (inactive); in the experiment on K562, > 100 µM (inactive); with RXF 393 it was > 100 µM (inactive); in the experiment with DU-145, > 100 µM (inactive); in the experiment with OVCAR-4, > 100 µM (inactive); with KM12, 31.9 µM (inactive). In addition, the GI50 in the experiment on 786-0 is > 100 µM (inactive); in the experiment on Malme-3M, > 100 µM (inactive); in the experiment with BT-549 it was > 100 µM (inactive); in the experiment on SF-295, 44.9 µM (inactive); in the experiment on HOP-62, > 100 µM (inactive); with SNB-19 it was > 100 µM (inactive). Besides, the GI50 with SF-268 was > 100 µM (inactive); in the experiment with T47D it was > 100 µM (inactive); in the experiment with NCI-H522, > 100 µM (inactive); in the experiment with OVCAR-3 it was 63.1 µM (inactive); in the experiment with U-251, > 100 µM (inactive); in the experiment with LOX IMVI it was 49 µM (inactive).
